Experiment in all cases: relative viability (nuclei count vs DMSO), 5 days (fraction); higher = more cells survive
Compound in assay [1]: CN(C)CC1=CC(=CC=C1)N=C(C2=CC=CC=C2)C3=C(NC4=C3C=CC(=C4)C(=O)N(C)C)O + CC1(C)CCC(c2ccc(Cl)cc2)=C(CN2CCN(c3ccc(C(=O)NS(=O)(=O)c4ccc(N[C@H](CCN5CCOCC5)CSc5ccccc5)c(S(=O)(=O)C(F)(F)F)c4)cc3)CC2)C1 [Navitoclax] (partner 0.5 µM)
The gist of the method:
(§1)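 One day after seeding in 1536-well plates, lung cancer cell lines were dosed by pin tool. Dosing was either single-drug or a fixed anchor-drug dose plus five library-drug doses (not always all listed) in √10 steps. After 5 days, nuclei were stained in one fix-and-stain step and counted on 4× images, and relative viability is the nuclei count of treated wells over that of vehicle wells, given as the median of duplicate plates.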

Compound in assay [2]: CN(C)CC1=CC(=CC=C1)N=C(C2=CC=CC=C2)C3=C(NC4=C3C=CC(=C4)C(=O)N(C)C)O + C[C@@H](Oc1cc(-c2cnn(C3CCNCC3)c2)cnc1N)c1c(Cl)ccc(F)c1Cl [Crizotinib] (partner 1 µM)
The gist of the method: as §1

Compound in assay [3]: CN(C)CC1=CC(=CC=C1)N=C(C2=CC=CC=C2)C3=C(NC4=C3C=CC(=C4)C(=O)N(C)C)O + Cc1nc(Nc2ncc(C(=O)Nc3c(C)cccc3Cl)s2)cc(N2CCN(CCO)CC2)n1 [Dasatinib] (partner 0.075 µM)
The gist of the method:
as §1

Compound in assay [4]: CN(C)CC1=CC(=CC=C1)N=C(C2=CC=CC=C2)C3=C(NC4=C3C=CC(=C4)C(=O)N(C)C)O + O=C(CCCCCCC(=O)Nc1ccccc1)NO [Vorinostat] (partner 1 µM)
The gist of the method: as §1

On to NCI-H1975, for which the relative viability in assay [1] (first compound 0.08 µM) was determined as 1.07; in assay [1] (first compound 0.253 µM), 1.06; in assay [1] (first compound 0.8 µM), 0.989; in assay [1] (first compound 2.53 µM) it was 1.08; in assay [1] (first compound 8 µM), 1.06; in assay [2] (first compound 0.08 µM), 0.969. Besides, the relative viability in assay [2] (first compound 0.253 µM) was determined as 1.07; in assay [2] (first compound 0.8 µM), 0.842; in assay [2] (first compound 2.53 µM), 0.859; in assay [2] (first compound 8 µM) it was 0.822; in assay [3] (first compound 0.08 µM) it was 0.372; in assay [3] (first compound 0.253 µM), 0.364. The relative viability in assay [3] (first compound 0.8 µM) is 0.341; in assay [3] (first compound 2.53 µM), 0.348; in assay [3] (first compound 8 µM), 0.31; in assay [4] (first compound 0.08 µM) it was 0.709; in assay [4] (first compound 0.253 µM), 0.669; in assay [4] (first compound 0.8 µM) it was 0.705. Moreover, the relative viability in assay [4] (first compound 2.53 µM) was found to be 0.661; in assay [4] (first compound 8 µM), 0.604.
Regarding NCI-H2087, the relative viability in assay [1] (first compound 0.08 µM) stood at 1.02; in assay [1] (first compound 0.253 µM), 0.942; in assay [1] (first compound 0.8 µM) it was 1.17; in assay [1] (first compound 2.53 µM) it was 1.03; in assay [1] (first compound 8 µM) it was 0.9; in assay [2] (first compound 0.08 µM), 0.817. Besides, the relative viability in assay [2] (first compound 0.253 µM) turned out to be 0.838; in assay [2] (first compound 0.8 µM), 0.828; in assay [2] (first compound 2.53 µM), 0.72; in assay [2] (first compound 8 µM) it was 0.872; in assay [3] (first compound 0.08 µM) it was 0.953; in assay [3] (first compound 0.253 µM), 0.835. In addition, the relative viability in assay [3] (first compound 0.8 µM) is 0.914; in assay [3] (first compound 2.53 µM), 0.794; in assay [3] (first compound 8 µM), 0.793; in assay [4] (first compound 0.08 µM), 0.53; in assay [4] (first compound 0.253 µM), 0.668; in assay [4] (first compound 0.8 µM), 0.69. Moreover, the values for the relative viability in assay [4] (first compound 2.53 µM) and in assay [4] (first compound 8 µM) were 0.796 and 0.846, respectively.
Take COR-L23: the relative viability in assay [1] (first compound 0.08 µM) was 1.02; in assay [1] (first compound 0.253 µM), 1.07; in assay [1] (first compound 0.8 µM) it was 1.07; in assay [1] (first compound 2.53 µM) it was 0.77; in assay [1] (first compound 8 µM), 0.791; in assay [2] (first compound 0.08 µM), 0.675. Further, the relative viability in assay [2] (first compound 0.253 µM) amounted to 0.603; in assay [2] (first compound 0.8 µM), 0.622; in assay [2] (first compound 2.53 µM) it was 0.532; in assay [2] (first compound 8 µM) it was 0.553; in assay [3] (first compound 0.08 µM), 0.54; in assay [3] (first compound 0.253 µM), 0.469. In addition, the relative viability in assay [3] (first compound 0.8 µM) worked out at 0.596; in assay [3] (first compound 2.53 µM), 0.423; in assay [3] (first compound 8 µM), 0.566; in assay [4] (first compound 0.08 µM), 0.539; in assay [4] (first compound 0.253 µM), 0.44; in assay [4] (first compound 0.8 µM) it was 0.468. Also, the relative viability is 0.407 in assay [4] (first compound 2.53 µM) and 0.396 in assay [4] (first compound 8 µM).
Regarding NCI-H441, the relative viability in assay [1] (first compound 0.08 µM) came to 0.632; in assay [1] (first compound 0.253 µM), 0.391; in assay [1] (first compound 0.8 µM), 0.619; in assay [1] (first compound 2.53 µM) it was 0.647; in assay [1] (first compound 8 µM), 0.565; in assay [2] (first compound 0.08 µM), 0.463. In addition, the relative viability in assay [2] (first compound 0.253 µM) came to 0.748; in assay [2] (first compound 0.8 µM), 1.04; in assay [2] (first compound 2.53 µM), 0.627; in assay [2] (first compound 8 µM) it was 0.629; in assay [3] (first compound 0.08 µM), 0.521; in assay [3] (first compound 0.253 µM), 0.68. The relative viability in assay [3] (first compound 0.8 µM) was found to be 0.529; in assay [3] (first compound 2.53 µM), 0.582; in assay [3] (first compound 8 µM) it was 0.505; in assay [4] (first compound 0.08 µM), 0.852; in assay [4] (first compound 0.253 µM), 0.86; in assay [4] (first compound 0.8 µM), 1.01. For the same cell line, the figures for the relative viability in assay [4] (first compound 2.53 µM) and in assay [4] (first compound 8 µM) were 0.613 and 0.805, respectively.
In the case of COR-L 105, the relative viability in assay [1] (first compound 0.08 µM) amounted to 0.664; in assay [1] (first compound 0.253 µM), 0.795; in assay [1] (first compound 0.8 µM) it was 0.762; in assay [1] (first compound 2.53 µM), 0.733; in assay [1] (first compound 8 µM), 0.562; in assay [2] (first compound 0.08 µM), 0.857. Besides, the relative viability in assay [2] (first compound 0.253 µM) worked out at 0.892; in assay [2] (first compound 0.8 µM), 0.882; in assay [2] (first compound 2.53 µM), 0.644; in assay [2] (first compound 8 µM) it was 0.625; in assay [3] (first compound 0.08 µM), 0.394; in assay [3] (first compound 0.253 µM) it was 0.369. In addition, the relative viability in assay [3] (first compound 0.8 µM) was 0.307; in assay [3] (first compound 2.53 µM) it was 0.314; in assay [3] (first compound 8 µM), 0.328; in assay [4] (first compound 0.08 µM) it was 0.782; in assay [4] (first compound 0.253 µM), 0.81; in assay [4] (first compound 0.8 µM) it was 0.753. For the same cell line, the relative viability in assay [4] (first compound 2.53 µM) was determined as 1.1; in assay [4] (first compound 8 µM) it was 0.66.
On to HCC-827, for which the relative viability in assay [1] (first compound 0.08 µM) stood at 1.04; in assay [1] (first compound 0.253 µM), 1.02; in assay [1] (first compound 0.8 µM) it was 1.06; in assay [1] (first compound 2.53 µM), 1; in assay [1] (first compound 8 µM), 0.941; in assay [2] (first compound 0.08 µM), 0.919. Moreover, the relative viability worked out at 0.909 in assay [2] (first compound 0.253 µM); 0.923 in assay [2] (first compound 0.8 µM); 0.879 in assay [2] (first compound 2.53 µM); 0.868 in assay [2] (first compound 8 µM); 0.382 in assay [3] (first compound 0.08 µM); 0.25 in assay [3] (first compound 0.253 µM). For the same cell line, the relative viability in assay [3] (first compound 0.8 µM) is 0.203; in assay [3] (first compound 2.53 µM), 0.294; in assay [3] (first compound 8 µM), 0.236; in assay [4] (first compound 0.08 µM), 0.861; in assay [4] (first compound 0.253 µM), 0.803; in assay [4] (first compound 0.8 µM) it was 0.801. Moreover, the relative viability in assay [4] (first compound 2.53 µM) is 0.867; in assay [4] (first compound 8 µM), 0.815.
In the case of NCI-H2126, the relative viability was determined as 0.899 in assay [1] (first compound 0.08 µM); 0.898 in assay [1] (first compound 0.253 µM); 0.821 in assay [1] (first compound 0.8 µM); 0.913 in assay [1] (first compound 2.53 µM); 0.892 in assay [1] (first compound 8 µM); 1.04 in assay [2] (first compound 0.08 µM). Besides, the relative viability in assay [2] (first compound 0.253 µM) came out at 1.01; in assay [2] (first compound 0.8 µM), 1.07; in assay [2] (first compound 2.53 µM), 1.01; in assay [2] (first compound 8 µM), 1.01; in assay [3] (first compound 0.08 µM), 0.717; in assay [3] (first compound 0.253 µM), 0.676. Also, the relative viability in assay [3] (first compound 0.8 µM) is 0.631; in assay [3] (first compound 2.53 µM), 0.607; in assay [3] (first compound 8 µM), 0.635; in assay [4] (first compound 0.08 µM), 0.822; in assay [4] (first compound 0.253 µM), 0.767; in assay [4] (first compound 0.8 µM), 0.475. In addition, the relative viability stood at 0.8 in assay [4] (first compound 2.53 µM) and 0.554 in assay [4] (first compound 8 µM).

For the origin of these results see the supplement of paper PMC10307832.
